From paper PMC10762035, “Molecular basis of human trace amine-associated receptor 1 activation” (Nature Communications, 2024)
Changes are numbered by the printed parent chain. Several values for one entry are separate records, joined by “and”; a condition that tells them apart may be missing. Equal entries are not always repeated. Where two headings read alike, the source gives them in different places.

Key:
hTA1 = target: T1, hTA1 (Homo sapiens, UniProt Q96RJ0); experiment: GloSensor cAMP accumulation assay, concentration response, wild-type hTA1 in transfected HEK293T cells; type: cell-based; conditions: for Emax: HEK-293T;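 as to all read-outs here: luminescence read after 30 min compound exposure at room temperature in cells preloaded with D-Luciferin, reflecting Gs-driven cAMP rise, efficacy scaled to the maximal β-PEA response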
T1 construct: expressed in transfected cells; host or cells: HEK293T
T1 sequence (Q96RJ0 1-339): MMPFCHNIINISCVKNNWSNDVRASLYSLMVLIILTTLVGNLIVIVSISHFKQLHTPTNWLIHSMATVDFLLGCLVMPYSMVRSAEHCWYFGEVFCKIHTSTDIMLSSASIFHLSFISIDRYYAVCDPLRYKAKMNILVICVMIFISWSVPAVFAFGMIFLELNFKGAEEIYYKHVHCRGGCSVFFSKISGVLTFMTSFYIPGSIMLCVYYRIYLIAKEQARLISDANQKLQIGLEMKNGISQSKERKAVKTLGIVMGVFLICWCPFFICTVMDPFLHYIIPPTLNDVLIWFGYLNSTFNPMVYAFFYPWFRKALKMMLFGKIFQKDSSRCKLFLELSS

hTA1 T194A = target: T2, hTA1 T194A (Homo sapiens, UniProt Q96RJ0, T194A); experiment: GloSensor cAMP accumulation assay, T194A mutant; conditions: for cAMP accumulation response, individual replicate values of the concentration-response curve: hTA1 T194A, log[Agonist], Supplementary Figure 5 source data
T2 sequence (Q96RJ0 1-339 T194A): T1 sequence (Q96RJ0 1-339) with T194A

hTA1 F195T = target: T3, hTA1 F195T (Homo sapiens, UniProt Q96RJ0, F195T); experiment: GloSensor cAMP accumulation assay, F195T mutant; type: cell-based;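 also: cells transiently co-expressing HA-FLAG-tagged hTA1 and the GloSensor cAMP biosensor, luminescence read 30 min after agonist addition at room temperature, concentration-response fitted by nonlinear regression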
T3 construct: expressed in transfected cells; host or cells: HEK293T
T3 sequence (Q96RJ0 1-339 F195T): T1 sequence (Q96RJ0 1-339) with F195T

hTA1 C88/178S = target: T4, hTA1 C88/178S (Homo sapiens, UniProt Q96RJ0, C178S/C88S); experiment: GloSensor cAMP accumulation assay, C88S/C178S double mutant; type: cell-based; conditions: for Normalized Luminescence Counts (N=2): log[Compound], single replicate values
T4 construct: expressed in transfected cells; host or cells: HEK293T
T4 sequence (Q96RJ0 1-339 C88S/C178S): T1 sequence (Q96RJ0 1-339) with C88S, C178S

hTA1 I290N = target: T5, hTA1 I290N (Homo sapiens, UniProt Q96RJ0, I290N); experiment: GloSensor cAMP accumulation assay, I290N mutant; type: cell-based;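 also: cells transiently co-expressing hTA1 and the GloSensor cAMP biosensor, luminescence read 30 min after compound addition at room temperature, efficacy scaled to the maximal β-PEA response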
T5 construct: expressed in transfected cells; host or cells: HEK293T
T5 sequence (Q96RJ0 1-339 I290N): T1 sequence (Q96RJ0 1-339) with I290N

[1] = C88S, C178S, each row is one independent experiment, 3 replicates

In the case of CCc1[nH]nc(C(=O)Nc2ccc([C@H]3CNCCO3)cc2)c1C [ralmitaront], the Emax (hTA1) is reported as 40.1%, the Emax (hTA1; WT hTA1, β-PEA = 100, average of the two experiments, read-out: Emax values, Avg) is reported as 40.1% and the “Emax values, Mean” value (hTA1; WT hTA1, β-PEA = 100, each line an independent experiment, 3 replicates) is reported as 54.4399 and 25.7884. For the same molecule, the “Emax values, Avg” value (hTA1; WT, average of the experiments, β-PEA = 100) was 40.11, the “Emax values, Avg” value (hTA1; WT, average of the two experiments) was 40.11 and the “Emax values, Mean” value (hTA1; WT, mean of each independent experiment (3 replicates), β-PEA = 100) was 54.4399 and 25.7884. The “Emax values, Mean” value (hTA1; WT, single experiments (3 replicates each), β-PEA = 100) was 54.4399 and 25.7884, the “Emax values, Mean” value (hTA1 T194A; T149A (so in the source), single experiments (3 replicates each), β-PEA = 100) was 41.3499 and 73.0935 and 32.2156 and the “cAMP accumulation response, individual replicate values of the concentration-response curve” value (hTA1 T194A; M = -7.522) was 13.1191 and 7.983 and 9.958 and 19.2742 and 14.6569 and 26.511. For the same molecule, the “cAMP accumulation response, individual replicate values of the concentration-response curve” value (hTA1 T194A; M = -8) was 2.846 and 8.97 and 3.241 and 12.5702 and 15.1897 and 10.4391, the “cAMP accumulation response, individual replicate values of the concentration-response curve” value (hTA1 T194A; M = -8.522) was 0.8706 and -0.5123 and 0.673 and 2.359 and 3.025 and 2.8472 and the “cAMP accumulation response, individual replicate values of the concentration-response curve” value (hTA1 T194A; M = -9) was -1.105 and -0.3148 and -1.895 and 1.693 and 2.048 and 2.27. The “cAMP accumulation response, individual replicate values of the concentration-response curve” value (hTA1 T194A; M = -9.522) was -1.895 and -1.698 and -1.5 and -0.7934 and 0.4941 and -0.3494, the “cAMP accumulation response, individual replicate values of the concentration-response curve” value (hTA1 T194A; M = -10) was -0.9074 and -1.105 (2×) and -0.2606 and -0.1274 and 0.9825 and the “cAMP accumulation response, individual replicate values of the concentration-response curve” value (hTA1 T194A; M = -10.522) was -2.29 and -1.105 (2×) and -0.971 and -0.5714 and -0.1274. The “cAMP accumulation response, individual replicate values of the concentration-response curve” value (hTA1 T194A; M = -11) was -1.105 (2×) and -0.5123 and -0.1274 and -0.527 and -0.3938, the “cAMP accumulation response, individual replicate values of the concentration-response curve” value (hTA1 T194A; M = -11.522) was -1.5 and -0.9074 and -1.895 and -0.4826 and 0.2722 and -0.3494 and the “cAMP accumulation response, individual replicate values of the concentration-response curve” value (hTA1 T194A; M = -12) was -1.105 (2×) and -0.5123 and -0.8378 and -0.9266 and 0.05017. The “cAMP accumulation response, individual replicate values of the concentration-response curve” value (hTA1 T194A; M = -12.522) was -0.5123 and -1.105 (2×) and -0.527 and 0.05017 and -0.6158, the Emax (hTA1 T194A; read-out: Span ± SEM (Emax normalized to β-PEA), T194A) was 48.9 ± 20.4% and the “ΔpEC50 values (each mutant value - WT average), Mean” value (hTA1 F195T; F195T mutant minus WT average, Figure 5B) was 0.04071 and 0.07112. For the same molecule, the “Emax values, Mean” value (hTA1 F195T; F195T mutant, Figure 5B, β-PEA = 100, each row one independent experiment (3 replicates)) was 86.6537, the Emax (hTA1 F195T; F195T mutant, Figure 5B, β-PEA = 100, each row one independent experiment (3 replicates), read-out: Emax values, Mean) was 67.7% and the Emax (hTA1 F195T; F195T, n=2, read-out: Span ± SEM (Emax normalized to β-PEA)) was 77.2 ± 9.48%. The “ΔEmax values (each mutant value - WT average), Mean” value (hTA1 C88/178S; [1]) was 18.4827 and 32.9242, the “ΔpEC50 values (each mutant value - WT average), Mean” value (hTA1 C88/178S; [1]) was -0.118 and 0.09825 and the “Normalized Luminescence Counts (N=2)” value (hTA1 C88/178S; C88S, C178S, M = -5) was 55.2389 and 58.8007 and 61.0622 and 66.9199 and 93.0497 and 63.144. For the same molecule, the “Normalized Luminescence Counts (N=2)” value (hTA1 C88/178S; C88S, C178S, M = -5.522) was 59.988 and 60.3272 and 50.3202 and 55.743 and 72.6594 and 83.3832, the “Normalized Luminescence Counts (N=2)” value (hTA1 C88/178S; C88S, C178S, M = -6) was 50.4332 and 47.6629 and 57.5569 and 67.8262 and 71.7532 and 58.9149 and the “Normalized Luminescence Counts (N=2)” value (hTA1 C88/178S; C88S, C178S, M = -6.522) was 36.7513 and 35.5075 and 46.8149 and 59.519 and 56.6493 and 50.3056. The “Normalized Luminescence Counts (N=2)” value (hTA1 C88/178S; C88S, C178S, M = -7) was 22.2779 and 25.1613 and 25.3874 and 33.9934 and 41.0922 and 21.3061, the “Normalized Luminescence Counts (N=2)” value (hTA1 C88/178S; C88S, C178S, M = -7.522) was 14.9281 and 10.2921 and 11.3663 and 21.004 and 25.2331 and 32.0299 and the “Normalized Luminescence Counts (N=2)” value (hTA1 C88/178S; C88S, C178S, M = -8) was 4.13 and 3.564 and 4.525 and 7.562 and 10.4313 and 11.0354. The “Normalized Luminescence Counts (N=2)” value (hTA1 C88/178S; C88S, C178S, M = -8.522) was 1.1331 and 2.8292 and 0.7939 and 5.598 and 0.6137 and 2.8793, the “Normalized Luminescence Counts (N=2)” value (hTA1 C88/178S; C88S, C178S, M = -9) was 0.3981 and 0.4547 and 0.9635 and -0.2925 and -0.1415 and 0.7648 and the “Normalized Luminescence Counts (N=2)” value (hTA1 C88/178S; C88S, C178S, M = -9.522) was -0.2803 and 1.19 and 0.172 and -1.501 and -1.35 and -2.105. The “Normalized Luminescence Counts (N=2)” value (hTA1 C88/178S; C88S, C178S, M = -10) was 0.0589 and 1.359 and 0.002362 and -0.8967 and -0.2925 and -1.35, the “Normalized Luminescence Counts (N=2)” value (hTA1 C88/178S; C88S, C178S, M = -10.522) was 1.077 and 0.1154 and 0.002362 and -1.501 and -1.199 and -1.048 and the “Normalized Luminescence Counts (N=2)” value (hTA1 C88/178S; C88S, C178S, M = -11) was -0.2238 and 0.172 and 0.7373 and -1.35 and -0.1415 and -1.048. The “Normalized Luminescence Counts (N=2)” value (hTA1 C88/178S; C88S, C178S, M = -11.522) was 0.0589 and 0.7373 and 0.5112 and -2.105 and 0.7648 and -0.8967, the “Normalized Luminescence Counts (N=2)” value (hTA1 C88/178S; C88S, C178S, M = -12) was 0.5112 and 0.7939 and 5.317 and -0.4436 and -0.5946 and -1.048 and the “Normalized Luminescence Counts (N=2)” value (hTA1 C88/178S; C88S, C178S, M = -12.522) was 0.7373 (2×) and 1.416 and -1.199 and -0.7456 and -2.105. The “Emax values, Mean” value (hTA1 C88/178S; C88S, C178S, normalized (β-PEA = 100), each row is one independent experiment, 3 replicates) was 58.5968 and 73.0383, the Emax (hTA1 C88/178S; read-out: Span ± SEM (Emax normalized to β-PEA)) was 65.8 ± 7.22% and the Emax (hTA1 I290N; I290N, n=2, read-out: Span ± SEM (Emax normalized to β-PEA)) was 43.6 ± 5.35%. For the same molecule, the “cAMP accumulation response, single replicate values (source data, Supplementary Figure 5)” value (hTA1 I290N; hTA1 I290N (N=2), log[Compound], M = -5) was 44.9736 and 36.855 and 39.1073 and 50.4588, the “Emax values, Mean” value (hTA1 I290N; hTA1 I290N mutant, β-PEA set to 100, each grid row a separate experiment, 3 replicates) was 38.2871 and the Emax (hTA1 I290N; hTA1 I290N mutant, β-PEA set to 100, each grid row a separate experiment, 3 replicates, read-out: Emax values (Mean)) was 49%.
